According to patent US11116771B2, “G protein-coupled receptor (GPCR) modulation by imipridones” (Oncoceutics, Inc., priority 2016, dated 2021):
In brackets after ≈: the same amount, converted by molar mass. Entries after “also recorded” stand apart in the source; their conditions may differ. Read-outs that look alike come from different tables or passages of the source.

Experiments:
[1] = test system: human cancer cells; test: Viability of human cancer cells at 72 hours post-treatment; type: cell-based; settings: relative to the potency of ONC201; viability of human cancer cells at 72 hours post-treatment
[2] = test system: MV411 AML cells; test: Cell viability, MV411 AML cells; type: cell-based
[3] = test system: MOLM14 AML cells; test: Cell viability, MOLM14 AML cells; type: cell-based
[4] = test system: K562 (CML); test: Cell viability, K562; type: cell-based; settings: Homo sapiens, 5 nM-5 μM, 72 h, n=3
[5] = test system: MHH-ES-1 (Ewing's sarcoma); test: Cell viability, MHH-ES-1; type: cell-based; settings: Homo sapiens, 5 nM-5 μM, 72 h, n=3
[6] = test system: Ewing's sarcoma cell lines; test: Anti-cancer efficacy in Ewing's sarcoma cell lines; type: cell-based; settings: 16 Ewing's sarcoma cell lines (FIG. 20)
[7] = test system: NCI60 cancer cell line panel; test: NCI60 cancer cell line panel; type: cell-based; settings: NCI60 panel (FIG. 16)
[8] = Rat non-GLP oral single dose study; type: in vivo
[9] = test system: DRD2 (short and long isoforms); test: β-arrestin recruitment GPCR reporter assay, DRD2; type: cell-based
[10] = test system: Staphylococcus aureus ATCC 29213; test: MIC by micro-broth dilution, S. aureus ATCC 29213; type: cell-based; settings: ATCC29213; for MIC90: read-out: MIC90; for MIC99: read-out: MIC99
[11] = test system: Staphylococcus aureus ATCC 33591; test: MIC by micro-broth dilution, S. aureus ATCC 33591; type: cell-based; settings: ATCC33591; for MIC90: read-out: MIC90; for MIC99: read-out: MIC99
[12] = test system: Staphylococcus aureus ATCC 700699; test: MIC by micro-broth dilution, S. aureus ATCC 700699; type: cell-based; settings: Staphylococcus aureus, ATCC700699, ATCC 700699 (48 hours); for MIC90: read-out: MIC90; for MIC99: read-out: MIC99
[13] = test system: HFF (Normal Fibroblast); test: Cell viability, HFF normal fibroblasts
[14] = test system: HL60; test: Cell viability, HL60 AML cell line; type: cell-based; settings: Homo sapiens, HL-60, 72 h
[15] = test system: HCT116 cells; test: Anticancer efficacy in HCT116 cells; type: cell-based, human
[16] = test system: MRC5 lung fibroblasts and Hs27a bone marrow cells; test: Cell viability of normal cells treated with ONC212; type: cell-based; settings: 5 nM-5 μM, 72 h (FIG. 29B)
[17] = test system: leukemia cell lines; test: Anti-cancer efficacy in leukemia cell lines; type: cell-based; settings: 55 leukemia cell lines regardless of subtype (FIG. 26)
[18] = test system: human colon cancer xenograft; test: Human colon cancer xenograft in mice; type: in vivo; settings: single dose, oral or intraperitoneal (FIG. 24)
[19] = test system: MV411 AML xenograft; test: MV411 AML xenograft model; type: in vivo, athymic nude mice
[20] = Mouse tolerability (non-GLP oral single dose / MTD study); type: in vivo
Description: ONC212 25 mg/kg represents NOAEL in mouse and rat non-GLP oral single dose studies which is also the efficacious dose in mouse xenograft studies. […].
Dual targeting of DRD2/3 and GPR132/91 represents a novel strategy for anti-cancer efficacy without toxicity. […] […]. […] […].

[21] = molecular target: T1, GPR132 (Homo sapiens, UniProt Q9UNW8); test: β-arrestin recruitment GPCR reporter assay, GPR132; type: cell-based
T1 sequence (Q9UNW8 1-380): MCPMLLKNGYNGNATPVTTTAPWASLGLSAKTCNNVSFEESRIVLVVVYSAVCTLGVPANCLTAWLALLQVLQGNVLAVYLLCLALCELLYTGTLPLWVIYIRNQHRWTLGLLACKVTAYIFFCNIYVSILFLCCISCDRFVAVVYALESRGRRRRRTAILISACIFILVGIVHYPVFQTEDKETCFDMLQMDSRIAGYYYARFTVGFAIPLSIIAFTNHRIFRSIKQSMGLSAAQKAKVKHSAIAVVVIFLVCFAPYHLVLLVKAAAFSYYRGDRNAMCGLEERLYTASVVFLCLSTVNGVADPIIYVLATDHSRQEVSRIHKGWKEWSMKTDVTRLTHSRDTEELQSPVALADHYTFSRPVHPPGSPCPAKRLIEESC

[22] = test system: human fetal lung fibroblast (MRC-5) cells; settings: MRC5; nanomolar concentrations (FIG. 22)
[23] = wild type Staphylococcus aureus (ATCC 29213), read-out: MIC
[24] = Staphylococcus aureus, ATCC 29213, 24 hours
[25] = Staphylococcus aureus, ATCC 29213, 24 hours, read-out: MIC95
[26] = Staphylococcus aureus, ATCC 29213, 24 hours, read-out: MIC, Visual
[27] = Staphylococcus aureus (ATCC 33591), methicillin resistant, read-out: MIC
[28] = Staphylococcus aureus, ATCC 33591, 24 hours
[29] = Staphylococcus aureus, ATCC 33591, 24 hours, read-out: MIC95
[30] = Staphylococcus aureus, ATCC 33591, 24 hours, read-out: MIC, Visual

Compound | anti-cancer efficacy across tumor types [7] | GPCR activity, DRD2 [9] | MIC [10, 23] [µg/mL] | MIC90 [10, 24] [µg/mL] | MIC [10, 25] [µg/mL] | MIC99 [10, 24] [µg/mL] | MIC [10, 26] [µg/mL] | MIC [11, 27] [µg/mL] | MIC90 [11, 28] [µg/mL] | MIC [11, 29] [µg/mL] | MIC99 [11, 28] [µg/mL] | MIC [11, 30] [µg/mL] | MIC90 [12] [µg/mL] | MIC ([12]; read-out: MIC95) [µg/mL] | MIC99 [12] [µg/mL] | MIC ([12]; read-out: MIC, Visual) [µg/mL] | further results
O=C1C2=C(CCN(Cc3ccccc3)C2)N2CCN=C2N1Cc1ccc(F)cc1F [ONC206] | demonstrated anti-cancer efficacy | improved DRD2 antagonism | 6.25 (≈ 15.3 µM) | 6.25 (≈ 15.3 µM) | 6.25 (≈ 15.3 µM) | 6.25 (≈ 15.3 µM) | 6.25 (≈ 15.3 µM) | 12.5 (≈ 30.6 µM) | 12.5 (≈ 30.6 µM) | 25 (≈ 61.2 µM) | > 100 | 12.5 (≈ 30.6 µM) | 12.5 (≈ 30.6 µM) | 12.5 (≈ 30.6 µM) | 25 (≈ 61.2 µM) | 12.5 (≈ 30.6 µM) | Relative Potency* [1]: A (A Indicates a potency increase of >2-fold of ONC201); IC50 ([2]; Homo sapiens, MV4-11, MV411, 5 nM-5 μM, 72 h, n=3): 200 nM; fold improvement compared to ONC201 in in vitro potency ([2]; cell lines of Table 12): up to 20 fold; IC50 ([3]; Homo sapiens, MOLM-14, 5 nM-5 μM, 72 h, n=3): 270 nM; IC50 [4]: 220 nM; IC50 [5]: 610 nM; anti-cancer efficacy [6]: nanomolar range in 14 out of 16; also recorded: superior efficacy compared to ONC201 in all cell lines; NOAEL ([8]; rat non-GLP oral single dose study): 125 mg/kg; IC50 ([13]; Homo sapiens, Fibroblast, 72 h): > 5000 nM; in vitro toxicity to normal cells ([13]; Table 12): no in vitro toxicity to normal cells at therapeutic doses
O=C1C2=C(CCN(Cc3ccccc3)C2)N2CCN=C2N1Cc1ccc(C(F)(F)F)cc1 [ONC212] | demonstrated anti-cancer efficacy | does not engage DRD2 | 3.13 (≈ 7.11 µM) | 3.13 (≈ 7.11 µM) | 3.13 (≈ 7.11 µM) | 3.13 (≈ 7.11 µM) | 3.12 (≈ 7.09 µM) | 3.13 (≈ 7.11 µM) | 3.13 (≈ 7.11 µM) | 6.25 (≈ 14.2 µM) | 100 (≈ 227 µM) | 3.12 (≈ 7.09 µM) | 6.25 (≈ 14.2 µM) | 12.5 (≈ 28.4 µM) | 12.5 (≈ 28.4 µM) | 12.5 (≈ 28.4 µM) | fold more potent compared to ONC201 ([2]; AML cell lines in vitro (Table 11)): up to 400 fold; efficacy in AML cells resistant to standard of care cytarabine ([2]; MV411, 5 nM-5 μM, 24 h (FIG. 29A)): efficacious; cell viability after 8 hr exposure ([2]; MV411, ONC212 at 250 nM, viability determined at 96 h (FIG. 29C)): robust reduction in cell viability; IC50 [14]: 210 nM; cell viability after 8 hr exposure ([3]; ONC212 at 250 nM, viability determined at 96 h (FIG. 29C)): robust reduction in cell viability; cell death in cancer cells ([15]; HCT116, nanomolar concentrations (FIG. 22)): induced cell death; IC50 ([15]; Homo sapiens, HCT-116, HCT116 cells): 10 nM; toxicity to normal cells [16]: non-toxic to normal cells at efficacious concentrations; anti-cancer efficacy [17]: nanomolar range; tumor volume compared to vehicle-treated control [18]: significant reduction of tumor volume; body weight loss or gross observations ([19]; all ONC212 regimens (FIG. 30C)): None of these ONC212 administration regimens were associated with body weight loss; leukemia xenograft tumor growth ([19]; biweekly dosing with 25 mg/kg, oral (FIG. 30B)): not efficacious; leukemia xenograft tumor growth ([19]; oral weekly administration, ONC212 50 mg/kg, ONC201 at similar doses (FIG. 30A)): significantly reduced; leukemia xenograft tumor growth ([19]; weekly/biweekly dosing with 5 mg/kg, oral (FIG. 30B)): not efficacious; NOAEL ([8]; rat, in vivo, po): 25 mg/kg; NOAEL ([20]; in vivo, mouse, non-GLP oral single dose study / MTD study): 25 mg/kg; well tolerated dose ([20]; mice): ≥ 225 mg/kg; GPCR activity, GPR132 [21]: highly selective agonist; cell death in normal cells [22]: not normal cells
